pIC50: −log10 of the molar value.
Key:
[1] = Inhibition of recombinant his tagged IMP1 (unknown origin) expressed in Escherichia coli (DE3) cells using FC5 as substrate by microplate reader assay
[2] = Inhibition of recombinant NDM1 (unknown origin) expressed in Escherichia coli (DE3) cells using FC5 as substrate by microplate reader assay
[3] = Inhibition of recombinant VIM-1 (unknown origin) expressed in Escherichia coli (DE3) cells using FC5 as substrate by microplate reader assay
[4] = Inhibition of recombinant his tagged VIM-2 (unknown origin) expressed in Escherichia coli (DE3) cells using FC5 as substrate by microplate reader assay
[5] = Inhibition of recombinant VIM-5 (unknown origin) expressed in Escherichia coli (DE3) cells using FC5 as substrate by microplate reader assay
Escherichia coli [6] = test: Antibacterial activity against Escherichia coli BAA2452 expressing blaNDM-1 clinical isolates assessed as meropenem MIC incubated for 16 to 18 hrs by broth microdilution method; assay type: functional; details: time 16-18 hrs; also: test concentration or dose not given here
Enterobacterales [7] = test: Antibacterial activity against Carbapenem-Resistant Enterobacterales 19 expressing blaNDM-1 clinical isolates assessed as meropenem MIC incubated for 16 to 18 hrs by broth microdilution method; assay type: functional; details: time 16-18 hrs; also: test concentration or dose not given here
Klebsiella pneumoniae [8] = test: Antibacterial activity against Klebsiella pneumoniae BAA2470 expressing blaNDM-1 clinical isolates assessed as meropenem MIC incubated for 16 to 18 hrs by broth microdilution method; assay type: functional; details: time 16-18 hrs; also: test concentration or dose not given here
Escherichia coli [9] = test: Antibacterial activity against Escherichia coli C1580 expressing blaIMP-1 clinical isolates assessed as meropenem MIC incubated for 16 to 18 hrs by broth microdilution method; assay type: functional; details: time 16-18 hrs; also: test concentration or dose not given here
Escherichia coli [10] = test: Antibacterial activity against Escherichia coli C1541 expressing blaVIM-2 clinical isolates assessed as meropenem MIC incubated for 16 to 18 hrs by broth microdilution method; assay type: functional; details: time 16-18 hrs; also: test concentration or dose not given here
Escherichia coli [11] = test: Antibacterial activity against Escherichia coli BAA2452 expressing blaNDM-1 clinical isolates assessed as fold potentiation incubated for 16 to 18 hrs by broth microdilution method; assay type: functional; details: time 16-18 hrs; also: test concentration or dose not given here
Enterobacterales [12] = test: Antibacterial activity against Carbapenem-Resistant Enterobacterales 19 expressing blaNDM-1 clinical isolates assessed as fold potentiation incubated for 16 to 18 hrs by broth microdilution method; assay type: functional; details: time 16-18 hrs; also: test concentration or dose not given here
Klebsiella pneumoniae [13] = test: Antibacterial activity against Klebsiella pneumoniae BAA2470 expressing blaNDM-1 clinical isolates assessed as fold potentiation incubated for 16 to 18 hrs by broth microdilution method; assay type: functional; details: time 16-18 hrs; also: test concentration or dose not given here
Escherichia coli [14] = test: Antibacterial activity against Escherichia coli C1580 expressing blaIMP-1 clinical isolates assessed as fold potentiation incubated for 16 to 18 hrs by broth microdilution method; assay type: functional; details: time 16-18 hrs; also: test concentration or dose not given here
Escherichia coli [15] = test: Antibacterial activity against Escherichia coli C1541 expressing blaVIM-2 clinical isolates assessed as fold potentiation incubated for 16 to 18 hrs by broth microdilution method; assay type: functional; details: time 16-18 hrs; also: test concentration or dose not given here

SMILES	pIC50 [1]	pIC50 [2]	pIC50 [3]	pIC50 [4]	pIC50 [5]	MIC (Escherichia coli [6])	MIC (Enterobacterales [7])	MIC (Klebsiella pneumoniae [8])	MIC (Escherichia coli [9])	MIC (Escherichia coli [10])	fold change (FC) (Escherichia coli [11])	fold change (FC) (Enterobacterales [12])	fold change (FC) (Klebsiella pneumoniae [13])	fold change (FC) (Escherichia coli [14])	fold change (FC) (Escherichia coli [15])
CCCc1ccc(C(c2cccc(-n3cc(-c4cccc(N)c4)nn3)c2)P(=O)(O)O)cc1 (stereo not given)	6.72	6.34	6.28	7.85	9.25	16 µg/mL	8 µg/mL	64 µg/mL	2 µg/mL	2 µg/mL	8	8	>2	16	8
COc1ccc(C(c2cccc(-n3cc(-c4cccc(N)c4)nn3)c2)P(=O)(O)O)cc1 (stereo not given)	5.49	5.09	5.91	7.28	7.60	16 µg/mL	8 µg/mL	64 µg/mL	1 µg/mL	2 µg/mL	8	8	>2	32	8
Cc1ccc(C(c2cccc(-n3cc(-c4cccc(N)c4)nn3)c2)P(=O)(O)O)cc1 (stereo not given)	7.57	5.97	6.21	9.09	9.00	8 µg/mL	8 µg/mL	64 µg/mL	1 µg/mL	1 µg/mL	16	8	>2	32	16
CC(C)(C)c1ccc(C(c2cccc(-n3cc(-c4cccc(N)c4)nn3)c2)P(=O)(O)O)cc1 (stereo not given)	5.86	6.74	6.15	8.05	9.00	16 µg/mL	8 µg/mL	64 µg/mL	2 µg/mL	2 µg/mL	8	8	>2	16	8
CCc1ccc(C(c2cccc(-n3cc(-c4cccc(N)c4)nn3)c2)P(=O)(O)O)cc1 (stereo not given)	6.77	6.19	5.86	8.22	8.15	8 µg/mL	8 µg/mL	64 µg/mL	4 µg/mL	1 µg/mL	16	8	>2	8	16
CSc1ccc(C(c2cccc(-n3cc(-c4cccc(N)c4)nn3)c2)P(=O)(O)O)cc1 (stereo not given)	6.96	6.30	6.19	9.00	9.92	16 µg/mL	8 µg/mL	64 µg/mL	2 µg/mL	1 µg/mL	8	8	>2	16	16
N#Cc1ccc(C(c2cccc(-n3cc(-c4cccc(N)c4)nn3)c2)P(=O)(O)O)cc1 (stereo not given)	6.96	5.95	6.57	7.28	8.52	16 µg/mL	8 µg/mL	64 µg/mL	2 µg/mL	2 µg/mL	8	8	>2	16	8
CCCCc1ccc(C(c2cccc(-n3cc(-c4cccc(N)c4)nn3)c2)P(=O)(O)O)cc1 (stereo not given)	6.53	6.82	6.34	7.82	9.00	8 µg/mL	8 µg/mL	64 µg/mL	1 µg/mL	2 µg/mL	16	8	>2	32	8

From ChEMBL document CHEMBL5620345, “Metal binding pharmacophore click-derived discovery of new broad-spectrum metallo-β-lactamase inhibitors” (Eur J Med Chem, 2023)
